The conditions of data set [1]: TAMRAD study; cited from earlier work.
The subject of data set [2] is breast tumours with low or high LKB1 expression. As to the kind of experiment: TAMRAD translational study: time to progression by LKB1 H score (IHC) in primary tumour. It is filed as in vivo, human.
Method: Paraffin embedded breast tumors were serially sectioned at a thickness of 4 μm. After deparaffinization and rehydration, tissue sections were boiled in low pH buffer (Dako) using a PT Link at 97° C. for 30 minutes. For blocking endogenous peroxidases, the slides were incubated in 5% hydrogen peroxide in sterile water. The slides were then incubated at room temperature for one hour with the anti-LKB1 polyclonal rabbit antibody (Ref: Ab58786, Abcam, Cambridge, UK) diluted at 1/50. After rinsing in Phosphate Buffer Saline, the slides were incubated with a biotinylated secondary antibody bound to a streptavidin peroxidase conjugate (Envision Flex kit Ref: K800021-2, Dako, Trappes, France). […] Sections were counterstained with hematoxylin.
All slides were read by a single senior pathologist who was blinded to the clinical data. For comparison of the staining among tissues, samples were scored semi-quantitatively using a complete histological score (H score) that considered both the staining intensity and the percentage of cells stained at a specific range of intensities. For each case, the complete H score was defined as the products of the percentage of cells stained at a given staining intensity (0-100) and the staining intensity score (0, none; 1, weak, 2, moderate, and 3, intense). […]
Data set [3] concerns hormone receptor-positive and human epidermal growth factor receptor type 2 (HER2)-negative mBC. To be noted: cited from earlier work.
The test system of data set [4] is metastatic breast cancer ER+/HER2− progressed after aromatase inhibitor. Particulars: 724 patients randomized 2:1; cited from earlier work.

The values that follow come from patent publication US20150250770A1, “LKB1 AS PREDICTIVE MARKER OF EVEROLIMUS EFFICACY IN BREAST CANCER” (CENTRE LEON BERARD, priority 2012, published 2015).

Like-named read-outs stand apart in the source and are kept apart here.

Take `CO[C@H]1C[C@@H]2CC[C@@H](C)[C@@](O)(O2)C(=O)C(=O)N2CCCC[C@H]2C(=O)O[C@H]([C@H](C)C[C@@H]2CC[C@@H](OCCO)[C@H](OC)C2)CC(=O)[C@H](C)/C=C(\C)[C@@H](O)[C@@H](OC)C(=O)[C@H](C)C[C@H](C)/C=C/C=C/C=C/1C` [everolimus, 42-O-(2-hydroxyethyl)rapamycin]: in data set [1], the “patients who had to decrease the dose of everolimus” value was 20% and the “patients who had to stop everolimus due to toxicities” value is 20%.
Regarding `CC/C(=C(\c1ccccc1)c1ccc(OCCN(C)C)cc1)c1ccccc1` [tamoxifen], the time to progression is reported as 5.5 months in data set [2] (patients with H Score above 90, p=0.35) and 4.5 months in data set [2] (patients with LKB1 H Score below or at 90, P=0.03). Also, in data set [3] (ITT population, exploratory P=0.002), the “median TTP” value was 4.5 months. Also, the “clinical benefit rate (CBR) at 6 months” value in data set [3] (ITT population, exploratory P=0.045) is listed as 42%; in data set [3] (per-protocol population) it was 41%. Besides, the “time-to-progression (TTP)” value in data set [3] (TAMRAD trial, 111 patients) is recorded as 4.5 months. Besides, the “median OS” value in data set [3] (last update of OS in September 2011) is reported as 32.9 months.
Consider exemestane [exemestane and placebo], for which the “progression free survival (PFS), local investigator assessment” value in data set [4] is given as 2.8 months.
